The test system of data set [1] is factor Xa.
The test system of data set [2] is P. falciparum-infected erythrocytes sequestered in the lungs.
Description: Human pE were cultivated in vitro and enriched to a parasitemia above 70%. Prior to injection into the animals, human infected erythrocytes were radioactively labeled with ^99mTc. The rats were anaesthetized and the labeled pE erythrocytes were injected intravenously into the tail vein. […] The distribution of the labeled cells was monitored using a gamma camera for 30 min. The relative amount of labeled cells sequestered in the lungs was calculated by comparing the activity of excised lungs to that of the whole animal.
The subject of data set [3] is rosettes of the parasite FCR3S1.2. As to the kind of experiment: Rosette disruption in vitro, parasite clone FCR3S1.2 and parasite cultures. Type of data set: cell-based, Plasmodium falciparum. The note with it: for Disruption of rosettes: parasite FCR3S1.2, FIG. 5.
In the next data set the target is factor IIa (Homo sapiens, UniProt P00734).
The test system of data set [4] is rosettes of fresh isolates of children with severe, complicated or mild malaria. As to conditions: 100 and 1000 μg/ml, FIG. 6.
Data set [5] relates to merozoite invasion of erythrocytes (P. falciparum, parasite FCR3S1.2). Nature of the data set: Merozoite invasion inhibition assay. Type of data set: cell-based. As to conditions: for Merozoite invasion into fresh red blood cells inhibited: parasite FCR3S1.2, FIG. 8. The protocol:
The merozoite invasion inhibition assay was performed with chemically modified heparin and unfractionated heparin Mature pE (trophozoite) synchronized P. falciparum cultures with a parasitemia of 0.4% and a hematocrit of 2% were grown in micro-cultures (100 ul) in the presence of increasing concentrations of chemically modified heparin or unfractionated heparin at 37° C. for 24-30 h. In order to quantify the parasitemia, the samples were stained for 10 s with acridine orange and then analyzed using a FACS instrument from Becton Dickinson. A minimum of 50,000 cells per sample were collected.

The nature of data set [6]: Rat tail incision bleeding time after i.v. dosing. Type of data set: in vivo, Sprague-Dawley rats. The protocol: (§1) Heparin and a LMWH preparation (Fragmin) were also studied for comparison. Basic test procedures were as follows:
The incision was 9 mm long and 1 mm deep and was standardized using a template device. Blood was blotted from the incision until bleeding stopped. The time during which visible bleeding could be observed was measured, for up to 25 minutes. The longer the bleeding time, the more pronounced the anti-coagulant effects of the administered agent.
(§2) The following compounds and doses were tested (each in groups of 8 rats) in juvenile rats of age 14±1 days: • 2. Saline: (Negative Control) • 3.

Data set [7] can be described thus: Coagulation parameters (APTT, PT) in citrate plasma of dosed rats. The class given is in vivo, Sprague-Dawley rats. The procedure: as §1
Forty minutes after dosing, the rats were sacrificed by full bleeding. Citrate stabilized plasma was prepared from the blood. Plasma was stored in aliquots of 1 or 0.5 mL at −70° C. until analysis of APTT and PT.
as §2

The subject of data set [8] is binding of pE to endothelial cells. As to the kind of experiment: Cytoadherence blocking and disruption, dynamic incubation. As to conditions: for Binding of pE to endothelial cell inhibited or reversed: parasite FCR3S1.2, FIG. 7. Type of data set: cell-based, Plasmodium falciparum.
The test system of data set [9] is factor Xa. The note with it: for comparison; not said whether anti-factor Xa or anti-factor IIa; cited from earlier work.
Where [10] appears, read: rat bleeding model, normalized to unfractionated heparin = 1.

Entries after “also recorded” stand apart in the source; their conditions may differ. Where two headings read alike, the source gives them in different places.

Take sevuparin sodium [DF02]: the “Anticoagulant activity anti-factor Xa” value worked out at 3.9 IU/mg in the data set with factor Xa [1] (drug substance Batch 1), 4.9 IU/mg with factor Xa [1] (drug substance Batch 2) and 5.5 IU/mg in the data set with factor Xa [1] (drug substance Batch 3). Also, the “Sequestration of infected erythrocytes in the lungs of rats” value in data set [2] (FIG. 9) is “can be inhibited”. In [2] (rat), the “Retention of uninfected labeled human erythrocytes, co-injection versus no substance” value is given as “No difference was seen”. Moreover, the “Disruption of rosettes at highest concentration” value in data set [3] (1000 μg/ml, with some parasites) was “total or close to total disruption of rosettes”. Moreover, the Disruption of rosettes entry in data set [3] is given as “dose dependent manner”. For the same substance, the “Anticoagulant FIIa activity” value at factor IIa (drug substance Batch 1) is listed as 4.6 IU/mg; at factor IIa (drug substance Batch 2), 5.0 IU/mg; at factor IIa (drug substance Batch 3) it was 3.8 IU/mg. Further, the “Sensitivity of rosettes of fresh isolates to treatment” value in [4] is given as “sensitive”. For the same substance, the “Inhibitory effect on merozoite invasion compared with heparin” value in data set [5] (in vitro) is on record as “equal potency per mg to heparin; also recorded: equal to those of standard heparin”. In data set [5], the “Merozoite invasion into fresh red blood cells inhibited” value is “dose dependent manner”. The “Anti-coagulant effect (bleeding time and coagulation parameters)” value in data set [6] (adult rats, i.v.) is listed as “low anti-coagulant effect”; in [6] (juvenile rats, age 14±1 days) it was “low anti-coagulant effect”. The “Relative Doses (estimated equipotent relative doses), Bleeding time” value in data set [6] (setting [10]) was 30-50. Also, the “Effect on PT” value is listed as “too weak to allow for comparative estimates” in [7] (adult rats, i.v.) and “weak” in data set [7] (juvenile rats, age 14±1 days). For the same substance, in data set [7] (setting [10]), the “Relative Doses (estimated equipotent relative doses), APTT” value is 30-40. The “Cytoadherence disruption: reduction of binding” value in [8] (pE adhered to the endothelium before incubation, FIG. 7) is given as “Up to 80%”. In data set [8] (pE and substance added simultaneously to the endothelium), the “Cytoadherence blocking: binding of pE blocked compared with untreated samples” value is recorded as “Up to 80%”. The “Binding of pE to endothelial cell inhibited or reversed” value in [8] is “dose dependent manner”.
On to Heparin [reference compound], for which the Disruption of rosettes entry in data set [3] is “dose dependent manner”. Moreover, the “Merozoite invasion into fresh red blood cells inhibited” value in data set [5] is reported as “dose dependent manner”. In addition, in data set [6] (rat, in vivo), the “Relative Doses (estimated equipotent relative doses), Bleeding time” value was 1. In [6] (rat, in vivo, iv), the “Anti-coagulant effect (bleeding time and coagulation parameters)” value is given as “profound effect on all parameters”. In addition, the “Specific anti-coagulant activity, value corresponding to Table 5” value in the data set on factor Xa [9] is listed as “at least 180 IU/mg”. In addition, the “Relative Doses (estimated equipotent relative doses), APTT” value in [7] (rat, in vivo) is 1. For the same substance, the “Binding of pE to endothelial cell inhibited or reversed” value in [8] is “dose dependent manner”.

(Values after US9480701B2, “Low anticoagulant heparins” (priority 2012, dated 2016).)
